Data: US20100130579A1, “CANCER THERAPY” (Georgetown University, priority 2006, published 2010)
Entries after “also recorded” stand apart in the source; their conditions may differ.

What was measured:
Format in all cases: cell-based
[1] = test system: DNA synthesis; test: Inhibition of DNA synthesis / anticancer effects of KED compounds; conditions: in the assay used (inhibition of DNA synthesis, FIGS. 7A-7D)
Protocol: FIGS. 7A-7D. FIGS. 7A-7D show the dose-dependent inhibition of DNA synthesis with KED compounds.
(§1) Anticancer effects and activation of a tumor suppressor gene, RASSF1A) KED-3-63-1, KED 3-63-2 and KED 3-81 were assessed.

[2] = test system: RASSF1A; test: Activation of tumor suppressor gene RASSF1A by KED compounds
Protocol: as §1

[3] = test system: cyclin D1; test: Cyclin D1 expression after KED compound; conditions: as a result of RASSF1A induction
Protocol: as §1

COc1ccc2c(c1)[nH]c1c(C)c3c(cc12)C=CC(C)(CCC=C(C)C)O3 (centres unmarked) [KED-3-63-1]
anticancer effects [1]: have anti-cancer effects; also recorded: have anticancer effects
induction of RASSF1A [2]: induced RASSF1A
cyclin D1 expression [3]: down-regulated

COc1ccc2c(c1)[nH]c1c(C)c(OCc3ccccc3)ccc12 [KED-3-63-2]
anticancer effects [1]: does not; also recorded: no anti-cancer effects

COc1ccc2c(c1)[nH]c1cc(OCc3ccccc3)c(C)cc12 [KED-3-81]
anticancer effects [1]: have anti-cancer effects; also recorded: have anticancer effects
